#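 Following 48 hours of exposure in 96-well plates, responses at five concentrations were used to interpolate endpoints linearly. The concentration for full growth arrest is given as TGI.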
# Experiments:
# Test in all cases: NCI anticancer screen, dose series, 48 h
# UACC-257 melanoma = tested on: UACC-257 melanoma
# SK-MEL-28 melanoma = tested on: SK-MEL-28 melanoma
# HCC-2998 colon = tested on: HCC-2998 colon
# LOX IMVI melanoma = tested on: LOX IMVI melanoma
# SNB-75 CNS = tested on: SNB-75 CNS
# ACHN renal = tested on: ACHN renal
# SF-539 CNS = tested on: SF-539 CNS
# IGROV1 ovarian = tested on: IGROV1 ovarian
# RXF 393 renal = tested on: RXF 393 renal
# SK-MEL-5 melanoma = tested on: SK-MEL-5 melanoma
# HS 578T breast = tested on: HS 578T breast
# OVCAR-5 ovarian = tested on: OVCAR-5 ovarian
# HCT-15 colon = tested on: HCT-15 colon
# NCI/ADR-RES ovarian = tested on: NCI/ADR-RES ovarian
# NCI-H23 lung = tested on: NCI-H23 lung
# COLO 205 colon = tested on: COLO 205 colon
# HL-60(TB) leukemia = tested on: HL-60(TB) leukemia
# UACC-62 melanoma = tested on: UACC-62 melanoma
# SNB-19 CNS = tested on: SNB-19 CNS
# OVCAR-8 ovarian = tested on: OVCAR-8 ovarian
# SN12C renal = tested on: SN12C renal
# HOP-62 NSCLC = tested on: HOP-62 NSCLC
# U251 CNS = tested on: U251 CNS
# BT-549 breast = tested on: BT-549 breast
# OVCAR-4 ovarian = tested on: OVCAR-4 ovarian
# MDA-MB-435 = tested on: MDA-MB-435
# NCI-H460 lung = tested on: NCI-H460 lung
# HCT-116 colon = tested on: HCT-116 colon
# HT29 colon = tested on: HT29 colon
# SK-MEL-2 melanoma = tested on: SK-MEL-2 melanoma
# NCI-H522 lung = tested on: NCI-H522 lung
# SF-268 CNS = tested on: SF-268 CNS
# MCF7 breast = tested on: MCF7 breast
# SK-OV-3 ovarian = tested on: SK-OV-3 ovarian
# HOP-92 NSCLC = tested on: HOP-92 NSCLC
# DU-145 prostate = tested on: DU-145 prostate
# UO-31 renal = tested on: UO-31 renal
# TK-10 renal = tested on: TK-10 renal
# MDA-N = tested on: MDA-N
# PC-3 prostate = tested on: PC-3 prostate
# 786-0 renal = tested on: 786-0 renal
# OVCAR-3 ovarian = tested on: OVCAR-3 ovarian
# MALME-3M melanoma = tested on: MALME-3M melanoma
# A549 NSCLC = tested on: A549 NSCLC
# SR leukemia = tested on: SR leukemia
# MOLT-4 leukemia = tested on: MOLT-4 leukemia
# EKVX NSCLC = tested on: EKVX NSCLC
# SF-295 CNS = tested on: SF-295 CNS
# M14 melanoma = tested on: M14 melanoma
# T-47D breast = tested on: T-47D breast
# RPMI-8226 leukemia = tested on: RPMI-8226 leukemia
# KM12 colon = tested on: KM12 colon
# CCRF-CEM leukemia = tested on: CCRF-CEM leukemia
# SW-620 colon = tested on: SW-620 colon
# NCI-H226 lung = tested on: NCI-H226 lung
# MDA-MB-231 breast = tested on: MDA-MB-231 breast
# K-562 leukemia = tested on: K-562 leukemia
# CAKI-1 renal = tested on: CAKI-1 renal
smiles,measurement,setting,value
CCCCCCCCCCCCOCCCCCCCCC/C=C/c1ccc2c(c1)OCCOCCOCCOCCO2,TGI,UACC-257 melanoma,73.2 µM
same,TGI,SK-MEL-28 melanoma,> 100 µM
same,TGI,HCC-2998 colon,44.7 µM
same,TGI,LOX IMVI melanoma,38.9 µM
same,TGI,SNB-75 CNS,33.4 µM
same,TGI,ACHN renal,43.1 µM
same,TGI,SF-539 CNS,31.4 µM
same,TGI,IGROV1 ovarian,50.6 µM
same,TGI,RXF 393 renal,36.4 µM
same,TGI,SK-MEL-5 melanoma,29.7 µM
same,TGI,HS 578T breast,47.3 µM
same,TGI,OVCAR-5 ovarian,> 100 µM
same,TGI,HCT-15 colon,> 100 µM
same,TGI,NCI/ADR-RES ovarian,34.8 µM
same,TGI,NCI-H23 lung,30.9 µM
same,TGI,COLO 205 colon,35.2 µM
same,TGI,HL-60(TB) leukemia,> 100 µM
same,TGI,UACC-62 melanoma,30.3 µM
same,TGI,SNB-19 CNS,77.6 µM
same,TGI,OVCAR-8 ovarian,25.5 µM
same,TGI,SN12C renal,50.8 µM
same,TGI,HOP-62 NSCLC,51.4 µM
same,TGI,U251 CNS,40.6 µM
same,TGI,BT-549 breast,40.6 µM
same,TGI,OVCAR-4 ovarian,45.1 µM
same,TGI,MDA-MB-435,33.8 µM
same,TGI,NCI-H460 lung,37.9 µM
same,TGI,HCT-116 colon,29.5 µM
same,TGI,HT29 colon,45.4 µM
same,TGI,SK-MEL-2 melanoma,30.2 µM
same,TGI,NCI-H522 lung,28.3 µM
same,TGI,SF-268 CNS,48.2 µM
same,TGI,MCF7 breast,32 µM
same,TGI,SK-OV-3 ovarian,34.4 µM
same,TGI,HOP-92 NSCLC,26.5 µM
same,TGI,DU-145 prostate,> 100 µM
same,TGI,UO-31 renal,39.4 µM
same,TGI,TK-10 renal,41.5 µM
same,TGI,MDA-N,36.2 µM
same,TGI,PC-3 prostate,39.9 µM
same,TGI,786-0 renal,26.6 µM
same,TGI,OVCAR-3 ovarian,40.6 µM
same,TGI,MALME-3M melanoma,66.8 µM
same,TGI,A549 NSCLC,36.6 µM
same,TGI,SR leukemia,49.1 µM
same,TGI,MOLT-4 leukemia,> 100 µM
same,TGI,EKVX NSCLC,61.6 µM
same,TGI,SF-295 CNS,34.2 µM
same,TGI,M14 melanoma,88.9 µM
same,TGI,T-47D breast,48.2 µM
same,TGI,RPMI-8226 leukemia,64.5 µM
same,TGI,KM12 colon,31.1 µM
same,TGI,CCRF-CEM leukemia,> 100 µM
same,TGI,SW-620 colon,> 100 µM
same,TGI,NCI-H226 lung,36.7 µM
same,TGI,MDA-MB-231 breast,37.7 µM
same,TGI,K-562 leukemia,> 100 µM
same,TGI,CAKI-1 renal,33.5 µM
